Data as given in US20210106703A1, “RADIOIMMUNOCONJUGATES IN COMBINATION WITH OTHER DRUGS AS TREATMENT AGAINST NHL” (Nordic Nanovector ASA, priority 2017, published 2021).
Read-outs that look alike come from different tables or passages of the source.

Assays:
U-2932 cells = assay: Real Time Glo viability screen and validation, Betalutin with PARP or cell cycle kinase inhibitors (Examples 4, 7); type: cell-based, human
Protocol: DLBCL cell lines U2932 and RIVA were maintained in RPMI 1640-GlutaMAX medium (Gibco) supplemented with 15% fetal bovine serum (Biowest) and 1% penicillin-streptomycin (Gibco) at 37° C. in a humidified atmosphere containing 5% CO2. Cells were split twice a week 1:7 and diluted 2-4 days before start of the experiment, to ensure they are in exponential growth at the beginning of the experiment.
Cells were treated in 6-well plates without shaking for 18 h with Betalutin at a final concentration of 1 μg/ml for U2932 and 0.5 μg/ml for RIVA. After treatment, PBS was added to the cells, and the cells pelleted. Cells were first resuspended in 1 ml PBS, then washed twice in PBS and finally diluted in growth medium to a final concentration of 2.5*10^6 cells/ml.
(§1) Cells density measurements were performed the day before seeding. Based on these measurements cells were seeded in 384-well plates at a density of 3000 cells per well in a culturing volume of 25 μl (resulting in start titers: 120 000 cells/ml) using a robot. For measuring viability using Real Time Glo (Promega, WI, USA), the Cell Viability Substrate and NanoLuc® Enzyme were diluted 1:500 in growth medium, and 25 μL of diluted reagents dispensed in each well by a robot. All reagents were equilibrated to 37° C. Cells were incubated with the reaction mix for 1 h at 37° C. before the first measurement of luminescence. Measurements were repeated as often as required within 72 h after adding the reagents. A Tecan SPARK 10M plate reader (Tecan, SUI) was used to measure luminescence, with the integration time set to 1 sec.
The screen was performed in 384-well plate with selected PARP inhibitors (stock solutions 10 mM in DMSO) acquired from SelleckChem (Selleckchem, TX, USA). To include no-drug controls, the drug panel (Table 6) was divided on two plates. Due to previous observations of cells growing poorly in wells located at the edges of the plates, the two outer most rows and columns were not used. As previously mentioned three different drug concentrations were used in the screen, 10 nM and 1 μM for U2932 and 10 and 100 nM for RIVA.
Candidate hits were identified using the Bliss Independence test for synergy. The effect of each drug alone at each concentration was calculated as the fraction of dead cells as compared to control cells Fa=(1−(RLUdrug/avgRLUcontrol), a similar calculation was performed for the effect of Betalutin alone Fb=(1−(avgRLUBetalutin/avgRLUcontrol). Through the following equation we found the expected additive effect of the combination of drug+Betalutin: Expected effect (E)Fab=(Fa+Fb−Fa*Fb). We subtracted this expected effect from the measured effect (M)Fab=(1−(RLUDrug+Betalutin/avgRLUcontrol) to get a value (Diff)Fab representing how the measured effect differed from the expected additive effect of the combination. This value was normalized to the survival fraction of drug alone: (Diff)Fab#=(Diff)Fab/(1−Fa). Furthermore, to get a measure of how big the well-to-well variation was, we calculated the standard deviation for the effect of Betalutin alone in the 48 control wells on each plate: (STDEV)Fb=(RLUBetalutin/RLUcontrol)−(averageRLUBetalutin/averageRLUcontrol). Drugs with a value (Diff)Fab#two times higher than the standard deviation of Betalutin treated controls, (STDEV)Fb, were scored as hits.
as §1, with “Measurements were repeated as often as required within 72 h after adding the reagents. A Tecan SPARK 10M plate reader (Tecan, SUI) was used to measure luminescence, with the integration time set to 1 sec.” left out

U2932 cells = assay: Real Time Glo viability assay, Betalutin and cell cycle inhibitors (Example 2); type: cell-based, human; conditions: for viability at 0.1 µM / viability at 1 µM: Homo sapiens, read-out: Growth inhibition (signal treated/control; 1 = no change); for viability at 0.1 µM: U2932, U2932, drug 100 nM; for viability at 1 µM: U2932, U2932, drug 1 μM
Protocol: Cells were split twice a week 1:3-1:5 depending on cell density. […] Real Time Glo was purchased from Promega. 384 well plates were purchased from Greiner Bio-One.
Cells were treated for 18-20 h with Betalutin at a final concentration of 1 μg/ml and 2 μg/ml in 6-well cell culture plates with shaking. After treatment, PBS was added to the cells, and the cells pelleted. Cells were first resuspended in 1 ml PBS, then washed twice in PBS and finally diluted in growth medium at the desired concentration. All cell lines were treated at a cell concentration of 2.5*10^6 cells/ml.
Regardless of cell number the culturing volume was 25 μl. For Real Time Glo, the Cell Viability Substrate and NanoLuc® Enzyme were diluted 1:500 in growth medium, and 25 μL of diluted reagents added to each well. All reagents were equilibrated to 37° C. Cells were incubated with the reaction mix for 1 h at 37° C. before the first measurement of luminescence. Measurements were repeated as often as required within 72 h after adding the reagents. Digitonin was added to cells at 200 μg/ml to record background luminescence of dead cells. A Tecan SPARK 10M plate reader was used to measure luminescence, with an integration time set to 1 sec.
Growth inhibition was calculated by dividing the luminescence signal of the treated cells by the luminescence signal of the control cells for each day of measurement after start of treatment [Table 1].
To evaluate effects of the drugs alone [(−)Betalutin] and their combination with Betalutin [(+)Betalutin], we calculated the Z-score for each sample (ZdrugX=1-(+)BetalutindrugX/(−)BetalutindrugX), where (+)BetalutindrugX and (−) BetalutindrugX are the measured luminescence intensity values for drug X in presence and absence of Betalutin, respectively. The calculation of Z-score values separately for each plate enabled comparison of results across plates, despite variations between the plates in overall signal intensity.

Ramos tumor xenografts = assay: Treatment of mice with tumor xenografts; type: in vivo, athymic mice; conditions: Ramos xenograft
From the text: Each treatment group included 6-9 mice.

OCI-Ly8 tumor xenografts = assay: Treatment of mice with tumor xenografts

With Nc1nc(Nc2ccc(S(N)(=O)=O)cc2)nn1C(=O)c1c(F)cccc1F [JNJ-7706621] the inhibition at 1 µM (U-2932 cells; Homo sapiens, U2932, 120 h, U-2932, drug 1 μM, five days into treatment, read-out: Growth inhibition, drug alone) was roughly 40%, the inhibition at 0.64 µM (U-2932 cells; Homo sapiens, U2932, U-2932, drug 640 nM, read-out: Growth inhibition, drug with Betalutin pre-treatment) was roughly 80% and the “Growth inhibitory effect, drug alone” value (U-2932 cells; U-2932, drug 10 nM) was “no growth inhibitory effect”. For the same molecule, the “Combined growth inhibition with Betalutin pre-treatment” value (U-2932 cells; U-2932, drug 1 μM + Betalutin) was “more than 60%”, the “Synergy by combination index” value (U-2932 cells; U-2932, drug 80-1280 nM with 0.5, 1 or 2 μg/ml Betalutin, day 5) was “Synergy was found for all tested combinations” and the “Synergy by combination index, confirmation experiments” value (U-2932 cells; U-2932, drug 100-5000 nM with Betalutin 0.5-5 μg/ml, day 5) was “observed for all but two combinations”. For the same molecule, the “Growth impairment, drug alone” value (U-2932 cells; U-2932, highest tested dose 1280 nM) was 30%, the “BLISS analysis, combination with Betalutin versus expected additive effect” value (U-2932 cells; U-2932, significant = more than twice the SD of Betalutin alone) was “significantly greater than the expected additive effect” and the viability at 0.1 µM (U2932 cells; (+)Betalutin, Dy3) was 83%. For the same molecule, the viability at 0.1 µM (U2932 cells; (+)Betalutin, Dy4) was 82%, the viability at 0.1 µM (U2932 cells; (+)Betalutin, Dy5) was 73% and the viability at 0.1 µM (U2932 cells; (+)Betalutin, Dy6) was 72%. It also gave a viability at 0.1 µM (U2932 cells; (−)Betalutin, Dy3) of 90%, a viability at 0.1 µM (U2932 cells; (−)Betalutin, Dy4) of 91% and a viability at 0.1 µM (U2932 cells; (−)Betalutin, Dy5) of 107%. It also gave a viability at 0.1 µM (U2932 cells; (−)Betalutin, Dy6) of 116%, a viability at 1 µM (U2932 cells; (+)Betalutin, Dy3) of 39% and a viability at 1 µM (U2932 cells; (+)Betalutin, Dy4) of 26%. For the same molecule, the viability at 1 µM (U2932 cells; (+)Betalutin, Dy5) was 16%, the viability at 1 µM (U2932 cells; (+)Betalutin, Dy6) was 11% and the viability at 1 µM (U2932 cells; (−)Betalutin, Dy3) was 53%. It also gave a viability at 1 µM (U2932 cells; (−)Betalutin, Dy4) of 36%, a viability at 1 µM (U2932 cells; (−)Betalutin, Dy5) of 25% and a viability at 1 µM (U2932 cells; (−)Betalutin, Dy6) of 20%. For the same molecule, the “Synergy for the combination with Betalutin” value (U2932 cells; U2932, drug 100 nM) was “Bliss”.

For C=CCn1c(=O)c2cnc(Nc3ccc(N4CCN(C)CC4)cc3)nc2n1-c1cccc(C(C)(C)O)n1 [MK-1775], the viability at 0.1 µM (U2932 cells; (+)Betalutin, Dy3) was 120%, the viability at 0.1 µM (U2932 cells; (+)Betalutin, Dy4) was 95% and the viability at 0.1 µM (U2932 cells; (+)Betalutin, Dy5) was 85%. The viability at 0.1 µM (U2932 cells; (+)Betalutin, Dy6) was 71%, the viability at 0.1 µM (U2932 cells; (−)Betalutin, Dy3) was 100% and the viability at 0.1 µM (U2932 cells; (−)Betalutin, Dy4) was 90%. The viability at 0.1 µM (U2932 cells; (−)Betalutin, Dy5) was 92%, the viability at 0.1 µM (U2932 cells; (−)Betalutin, Dy6) was 103% and the viability at 1 µM (U2932 cells; (+)Betalutin, Dy3) was 104%. The viability at 1 µM (U2932 cells; (+)Betalutin, Dy4) was 94%, the viability at 1 µM (U2932 cells; (+)Betalutin, Dy5) was 89% and the viability at 1 µM (U2932 cells; (+)Betalutin, Dy6) was 80%. For the same molecule, the viability at 1 µM (U2932 cells; (−)Betalutin, Dy3) was 86%, the viability at 1 µM (U2932 cells; (−)Betalutin, Dy4) was 89% and the viability at 1 µM (U2932 cells; (−)Betalutin, Dy5) was 96%. The viability at 1 µM (U2932 cells; (−)Betalutin, Dy6) was 115%, the Median survival (Ramos tumor xenografts; 250 MBq/kg ^177Lu-lilotomab + 30 mg/kg MK-1775 twice a day, day 1 to 5) was 47 days and the “Tumor growth versus 250 MBq/kg ^177Lu-lilotomab alone” value (Ramos tumor xenografts; 250 MBq/kg ^177Lu-lilotomab + MK-1775, p=0.001) was “significantly delayed tumor growth”. For the same molecule, the “Tumor growth delay versus ^177Lu-lilotomab alone” value (OCI-Ly8 tumor xenografts; 250 MBq/kg ^177Lu-lilotomab + MK-1775, p=0.05) was “significantly better”, the “Efficacy of combination versus 500 MBq/kg ^177Lu-lilotomab alone” value (OCI-Ly8 tumor xenografts; 250 MBq/kg ^177Lu-lilotomab + MK-1775, p=0.7070) was “as efficient as 500 MBq/kg” and the “Therapeutic efficacy compared with control” value (OCI-Ly8 tumor xenografts; single agent) was “no therapeutic efficacy”.

B1: Lutetium-177 [^177Lu]-lilotomab satetraxetan (conjugate, chains of the INN, looked up)
VH: EIQLQQSGPELVKPGASVKVSCKASGYSFTDYNMYWVKQSHGKSLEWIGYIDPYNGDTTYNQKFKGKATLTVDKSSSTAFIHLNSLTSEDSAVYYCARSPYGHYAMDYWGQGTSVTVSS
VL: DIVMTQSHKLLSTSVGDRVSITCKASQDVSTAVDWYQQKPGQSPKLLINWASTRHTGVPDRFTGSGSGTDYTLTISSMQAEDLALYYCRQHYSTPFTFGSGTKLEIK
modifications: 177Lu satetraxetan chelator conjugate
With B1 the “Proliferation relative to non-treated cells” value (U-2932 cells; U-2932, 1 μg/ml [600 MBq/mg]) was “more than 80%”, the “Inhibition of proliferation capacity, single treatment” value (U-2932 cells; U-2932, Betalutin 1 μg/ml, days 5 and 6) was “less than 10%” and the “Proliferation potential compared to untreated cells” value (U-2932 cells; U-2932, validation screen, highest Betalutin dose (2 μg/ml)) was “about 70%”. For the same molecule, the Median survival (Ramos tumor xenografts; 250 MBq/kg ^177Lu-lilotomab alone) was 40 days, the Median survival (OCI-Ly8 tumor xenografts; 250 MBq/kg, p=0.0062) was “significantly improved” and the Tumor growth delay (OCI-Ly8 tumor xenografts; 250 MBq/kg, p=0.015) was “significantly improved”.
